Laboratory results from patent publication US20080090749A1 (priority 2005, published 2008).
Values joined by “and” are separate entries in the source; they are usually repeats but may differ in a detail not shown here. Equal entries are not always repeated.

Legend:
[1] = system: 3-methylhistidine; assay: 3-methylhistidine content in the large intestine of stress-loaded rats by LC/MS (index for proteolysis); type: in vivo, Wistar rats
Description: (§1) After being preliminarily reared on an ordinary diet (CRF-1, Charles River Japan Inc.) for 1 week, Wistar rats (4 weeks of age, male) were fed an ordinary diet (control group) or a histidine diet prepared by mixing finely milled L-histidine hydrochloride at 2% by weight in the ordinary diet (histidine dosing group) for 2 weeks. In the mornings of day 15, day 16, and day 17 after the start of the rearing with the histidine diet, stress loading was performed by the method described below, and the feces excreted by the rats were examined for weight and description.
(§2) The large intestines of stress-loaded rats were collected and frozen in liquid nitrogen on day 17, and stored at −80° C. until use. Extracted from the frozen samples by the following protocol were noradrenaline, histamine, serotonin and 3-methylhistidine, which were then quantified by LC/MS.
(§3) Each frozen rat tissue (large intestine) stored at −80° C. as disrupted using CryoPress (manufactured by Microtec Co., Ltd.), and 1 mL of methanol per 100 mg at −80° C. was added. The mixture was disrupted using FastPrep (30 sec×2 times), and 0.8 mL of the disruption liquid was recovered. 1 mL of cold chloroform was added thereto, and the mixture was stirred using Vortex for 1 minute, after which 1 mL of cold H2O was added. After the mixture was further stirred using Vortex for 1 minute, it was allowed to stand for 30 minutes. […]

[2] = system: diarrhea due to stress loading using a stress cage; assay: Stress loading using a stress cage, histidine bolus oral administration (Example 2), fecal examination; type: in vivo, Wistar rats
Description: After being preliminarily reared on an ordinary diet (CRF-1, Charles River Japan Inc.) for 1 week, Wistar rats (6 weeks of age, male) received histidine given by gavage at a frequency of twice a day (morning and evening) on day 8 and day 9 after the start of the preliminary rearing. A 5 mL dosing volume of 0.5% methylcellulose solution (control solution) for the control group, or a solution of L-histidine hydrochloride dissolved (partially suspended) in 0.5% methylcellulose solution to a content ratio of 1.5 g per kg body weight of each rat for the histidine dosing group, was orally administered using a sonde. Stress loading was performed using a stress cage in the same manner as Example 1. That is, after each rat was transferred to a small individual cage (13.5×27×12 cm) in the morning of day 10, and allowed to stand for 2 hours, the same histidine solution or control solution as those given on the previous day were once orally administered. After being allowed to stand in a small individual cage for 2 hours, each rat was transferred to a constraint cage (5×17×4 cm) and allowed to stand for 1 hour, whereby stress loading was performed. The feces excreted by the rat were examined for description, number, and weight.
(§4) Eight rats were used for each group.

[3] = system: cholera toxin; conditions: cited from earlier work
[4] = system: ulcerative damage of the intestine; conditions: reported; cited from earlier work
[5] = system: Serotonin; assay: Serotonin content in the large intestine of stress-loaded rats by LC/MS; type: in vivo, Wistar rats
Description: as §1, §2, §3

[6] = system: soft feces due to stress loading by front leg constraint; assay: Stress loading by front leg constraint, histidine oral administration (Example 3), fecal examination; type: in vivo, Wistar rats
Description: After being preliminarily reared on an ordinary diet (CRF-1, Charles River Japan Inc.) for 1 week, Wistar rats (6 weeks of age, male) received histidine given by gavage at a frequency of twice a day (morning and evening) on day 8 and day 9 as described above. A 5 mL dosing volume of 0.5% methylcellulose solution (control solution) for the control group, or a solution of L-histidine hydrochloride dissolved (partially suspended) in 0.5% methylcellulose solution to a content ratio of 1.5 g per kg body weight of each rat for the histidine dosing group, was orally administered using a sonde.
In the morning of day 10, the same histidine solution or control solution as those given on the previous day was once orally administered. One hour later, under low-dose ether anesthesia, stress loading was performed by constraining the front legs with a tape of the Scotch brand. After each animal was allowed to stand for 1 hour in an individual cage, the feces excreted by the rat were examined for description, number, and weight.
as §4

[7] = system: diarrhea under stress loading using a stress cage; assay: Stress loading using a stress cage, histidine diet (Example 1), fecal examination; type: in vivo, Wistar rats; conditions: for Number of individuals with diarrhea / Number of individuals with soft feces / Number of individuals without diarrhea or soft feces: 8 individuals examined
Description: as §1
After being allowed to stand in a small individual cage (13.5×27×12 cm) for about 2 hours, each rat was transferred to a constraint (stress) cage having a size such that the rat cannot move (5×17×4 cm), and further allowed to stand for 2 hours, whereby stress loading was performed (control stress group, histidine dosing stress group). The feces excreted by the rat were examined for description, number, and weight. The stress loading and fecal examination were performed on each individual for three consecutive days.
as §4

[8] = system: Noradrenaline; assay: Noradrenaline content in the large intestine of stress-loaded rats by LC/MS; type: in vivo, Wistar rats; conditions: Stress+ His diet+; day 17; N = 8
Description: as §1, §2, §3

[9] = system: Histamine; assay: Histamine content in the large intestine of stress-loaded rats by LC/MS; type: in vivo, Wistar rats
Description: as §1, §2, §3

[10] = Stress+ His diet+, day 17, N = 8
[11] = 8 individuals examined, histidine bolus oral administration
[12] = group mean, 8 rats, 1.5 g per kg oral, stress cage 1 hour
[13] = individual rats, 1.5 g per kg oral, stress cage 1 hour, hydrochloride
[14] = individual rats, 1.5 g per kg oral, front leg constraint 1 hour, hydrochloride
[15] = individual rats, 2% L-histidine hydrochloride diet, stress cage, stress day 1, hydrochloride
[16] = individual rats, 2% L-histidine hydrochloride diet, stress cage, stress day 2, hydrochloride
[17] = individual rats, 2% L-histidine hydrochloride diet, stress cage, stress day 3, hydrochloride
[18] = stress loading Day 1, histidine diet
[19] = stress loading Day 2, histidine diet
[20] = stress loading Day 3, histidine diet

## Cl.N[C@@H](Cc1c[nH]cn1)C(=O)O [Histidine, L-histidine hydrochloride]
[1]; [10]
  3-methylhistidine content in the large intestine (Tissue wet weight): 0.13 nmol/g
[1]; histidine diet
  effect on increase of 3-methylhistidine with stress loading: suppressed
[2]; [11]
  Number of individuals with diarrhea: 0
  Number of individuals with soft feces: 8
  Number of individuals without diarrhea or soft feces: 0
[2]; bolus oral administration, stress cage, compared to the control group
  effect of histidine administration on diarrhea: suppressive effect
[2]; [12]
  Number of normal feces, Mean: 0.125
  Number of soft feces, Mean: 6
  Total fecal weight, Mean: 1.64 g
[2]; group of 8 rats, 1.5 g per kg oral, stress cage 1 hour
  Onset of diarrhea, individuals in group: 0 individual
[2]; individual rats, 1.5 g per kg oral, stress cage 1 hour
  Onset of diarrhea: none
[2]; [13]
  Number of normal feces: 0 (7×) and 1
  Number of soft feces: 12 and 8 and 3 and 5 and 6 (2×) and 4 (2×)
  Total fecal weight: 2.379 g and 2.7 g and 0.852 g and 2.077 g and 1.515 g and 1.975 g and 0.72 g and 0.94 g
[3]
  action on the gut water secretion by cholera toxin: suppressive action
[4]
  effect on ulcerative damage of the intestine by infectious microorganisms and drugs: Mitigates
[5]; [10]
  Serotonin content in the large intestine (Tissue wet weight): 6.63 nmol/g
[5]; histidine diet
  effect on increase of serotonin tissue content in the large intestine due to stress loading: tended to be suppressed
[6]; Mean line of group, 8 rats
  Onset of diarrhea, group line: 0
[6]; Table 8, front leg constraint
  Mean number of normal feces: 0.88
  Mean number of soft feces: 3.75
[6]; group mean, 8 rats
  Total fecal weight, Mean: 1.68
[6]; group mean, 8 rats, Table 7
  Number of normal feces, Mean: 0.88
  Number of soft feces, Mean: 3.75
[6]; individual rats, 1.5 g per kg oral, front leg constraint 1 hour
  Onset of diarrhea: none
[6]; [14]
  Number of normal feces: 4 and 2 and 0 (5×) and 1
  Number of soft feces: 5 (2×) and 2 (2×) and 0 and 6 (2×) and 4
  Total fecal weight: 2.12 and 0.73 and 1.03 and 0 and 2.18 and 2.47 and 2.63 and 2.31
[6]; oral administration, front leg constraint, compared to the control group
  effect of histidine administration on diarrhea: suppressive effect
[7]; histidine diet, stress cage, compared to the control group
  effect of histidine administration on diarrhea: suppressive effect
[7]; individual rats, 2% L-histidine hydrochloride diet 2 weeks, stress cage 2 hours, stress day 1, hydrochloride
  Number of feces Day 1 normal feces: 6 and 3 (2×) and 1 and 11 and 10 and 5 and 0
[7]; [15]
  Fecal weight Total weight Day 1: 1.01 g and 1.65 g and 1.94 g and 2.23 g and 2.82 g and 2.46 g and 1.77 g and 0.00 g
  Number of feces Day 1 diarrhea: 0 (7×) and 1
  Number of feces Day 1 soft feces: 0 (3×) and 1 (2×) and 3 (3×)
[7]; [16]
  Fecal weight Total weight Day 2: 0.58 g and 0.56 g and 4.02 g and 2.38 g and 0.25 g and 3.48 g and 1.28 g and 1.26 g
  Number of feces Day 2 diarrhea: 0 (7×) and 2
  Number of feces Day 2 normal feces: 4 and 2 and 10 and 8 and 3 and 5 and 6 (2×)
  Number of feces Day 2 soft feces: 0 (4×) and 3 and 2 and 5 and 1
[7]; [17]
  Fecal weight Total weight Day 3: 1.15 g and 0.46 g and 3.27 g and 1.00 g and 2.22 g and 3.99 g and 1.64 g and 0.41 g
  Number of feces Day 3 diarrhea: 0 (7×) and 1
  Number of feces Day 3 normal feces: 6 (5×) and 1 and 4 and 3
  Number of feces Day 3 soft feces: 0 (3×) and 1 (2×) and 4 (2×) and 5
[7]; [18]
  Number of individuals with diarrhea: 1
  Number of individuals with soft feces: 5
  Number of individuals without diarrhea or soft feces: 3
[7]; [19]
  Number of individuals with diarrhea: 1
  Number of individuals with soft feces: 4
  Number of individuals without diarrhea or soft feces: 4
[7]; [20]
  Number of individuals with diarrhea: 1
  Number of individuals with soft feces: 5
  Number of individuals without diarrhea or soft feces: 3
[8]
  Noradrenaline content in the large intestine (Tissue wet weight): 0.96 nmol/g
[9]; [10]
  Histamine content in the large intestine (Tissue wet weight): 6.61 nmol/g
[9]; histidine diet
  effect on increase of histamine tissue content in the large intestine due to stress loading: tended to be suppressed
